From patent US12083094B2, “Cannabinoid composition and methods of treatment using the same” (CANNPAL ANIMAL THERAPEUTICS LIMITED, priority 2018, dated 2024)
Values joined by “and” are separate entries in the source; they are usually repeats but may differ in a detail not shown here. Equal values may be shown once.

Experiment: Blood sampling for THC and CBD plasma concentration after single oral dosing
Conditions: for concentration at 12 h: 12 hours post administration; for AUC: AUC for CBD concentration, canine
Method: Two compositions, IVP1 and IVP2, were administered in varying amounts in the study.
Dosage volumes were calculated prior to Day 0, to provide the target dosage in mg/kg bodyweight based on actual dog bodyweights and IVP active ingredient composition based on the Certificates of Analysis.
Blood samples of approximately 5 mL were collected at each drug concentration sampling time-point from each animal using 22-gauge needles and 5 mL syringes.
The data points from Table 4 and Table 5 were also plotted and these graphs are set out in FIGS. 1-16.

Structure (SMILES): C=C(C)[C@@H]1CCC(C)=C[C@H]1c1c(O)cc(CCCCC)cc1O [CBD, Cannabidiol]
- concentration at 32 h (dog, plasma, oral, CBD concentration in blood plasma, mean of dogs 5-8, 0.24 mg/kg CBD + 0.12 mg/kg THC oral once, 32 h): 0.34 ng/mL
- concentration at 48 h (dog, plasma, oral, CBD concentration in blood plasma, mean of dogs 5-8, 0.24 mg/kg CBD + 0.12 mg/kg THC oral once, 48 h): 0.13 ng/mL
- concentration at 72 h (dog, plasma, oral, CBD concentration in blood plasma, mean of dogs 5-8, 0.24 mg/kg CBD + 0.12 mg/kg THC oral once, 72 h): 0 ng/mL
- concentration at 16 h (dog, plasma, oral, CBD concentration recorded in subjects, 16 hours post administration): 0.26 ng/mL
- concentration at 32 h (dog, plasma, oral, CBD concentration recorded in subjects, 32 hours post administration): 0.28 ng/mL
- concentration at 12 h (dog, plasma, oral, highest level of CBD recorded): 0.88 ng/mL
- concentration at 12 h (dog, plasma, oral, lowest level of CBD recorded in a subject): 0.23 ng/mL
- half-life (dog, plasma, po): 12.6 h
- AUC (dog, plasma, po, 0.12 mg/kg, 0.12 mg/kg CBD in combination with 0.24 mg/kg THC): 30 to 50 ng·h/mL
- Cmax (dog, plasma, po, 0.24 mg/kg): 5 to 69 ng/mL
- AUC (dog, plasma, po, 0.24 mg/kg, 0.24 mg/kg CBD in combination with 0.12 mg/kg THC): 95 to 110 ng·h/mL
- CBD concentration in blood plasma (individual dogs 1-4, 0.12 mg/kg CBD + 0.24 mg/kg THC oral once, 0 h): 0 ng/mL
- CBD concentration in blood plasma (individual dogs 1-4, 0.12 mg/kg CBD + 0.24 mg/kg THC oral once, 0.67 h): 15.60 ng/mL and 18.10 ng/mL and 5.26 ng/mL and 10.10 ng/mL
- CBD concentration in blood plasma (individual dogs 1-4, 0.12 mg/kg CBD + 0.24 mg/kg THC oral once, 1 h): 12.00 ng/mL and 13.60 ng/mL and 5.99 ng/mL and 13.10 ng/mL
- CBD concentration in blood plasma (individual dogs 1-4, 0.12 mg/kg CBD + 0.24 mg/kg THC oral once, 1.5 h): 7.99 ng/mL and 9.07 ng/mL and 9.84 ng/mL
- CBD concentration in blood plasma (individual dogs 1-4, 0.12 mg/kg CBD + 0.24 mg/kg THC oral once, 2 h): 4.48 ng/mL and 8.08 ng/mL and 8.72 ng/mL
- CBD concentration in blood plasma (individual dogs 1-4, 0.12 mg/kg CBD + 0.24 mg/kg THC oral once, 3 h): 2.83 ng/mL and 2.33 ng/mL and 5.83 ng/mL and 6.25 ng/mL
- CBD concentration in blood plasma (individual dogs 1-4, 0.12 mg/kg CBD + 0.24 mg/kg THC oral once, 4 h): 1.95 ng/mL and 1.24 ng/mL and 4.08 ng/mL and 4.31 ng/mL
- CBD concentration in blood plasma (individual dogs 1-4, 0.12 mg/kg CBD + 0.24 mg/kg THC oral once, 6 h): 1.56 ng/mL and 0.76 ng/mL and 2.99 ng/mL and 2.75 ng/mL
- CBD concentration in blood plasma (individual dogs 1-4, 0.12 mg/kg CBD + 0.24 mg/kg THC oral once, 8 h): 1.12 ng/mL and 0.53 ng/mL and 1.23 ng/mL and 2.32 ng/mL
- CBD concentration in blood plasma (individual dogs 1-4, 0.12 mg/kg CBD + 0.24 mg/kg THC oral once, 12 h): 0.48 ng/mL and 0.23 ng/mL and 0.37 ng/mL and 0.55 ng/mL
- CBD concentration in blood plasma (individual dogs 1-4, 0.12 mg/kg CBD + 0.24 mg/kg THC oral once, 16 h): 0.00 ng/mL (2×) and 0.26 ng/mL and 0.36 ng/mL
- CBD concentration in blood plasma (individual dogs 1-4, 0.12 mg/kg CBD + 0.24 mg/kg THC oral once, 24 h): 0.00 ng/mL and 0.23 ng/mL
- CBD concentration in blood plasma (individual dogs 5-8, 0.24 mg/kg CBD + 0.12 mg/kg THC oral once, 0 h): 0 ng/mL
- CBD concentration in blood plasma (individual dogs 5-8, 0.24 mg/kg CBD + 0.12 mg/kg THC oral once, 0.67 h): 28.70 ng/mL and 28.10 ng/mL and 10.20 ng/mL and 53.40 ng/mL
- CBD concentration in blood plasma (individual dogs 5-8, 0.24 mg/kg CBD + 0.12 mg/kg THC oral once, 1 h): 35.20 ng/mL and 20.10 ng/mL and 18.90 ng/mL and 69.10 ng/mL
- CBD concentration in blood plasma (individual dogs 5-8, 0.24 mg/kg CBD + 0.12 mg/kg THC oral once, 1.5 h): 33.20 ng/mL and 27.00 ng/mL and 12.70 ng/mL and 34.60 ng/mL
- CBD concentration in blood plasma (individual dogs 5-8, 0.24 mg/kg CBD + 0.12 mg/kg THC oral once, 2 h): 14.90 ng/mL and 12.60 ng/mL and 20.30 ng/mL
- CBD concentration in blood plasma (individual dogs 5-8, 0.24 mg/kg CBD + 0.12 mg/kg THC oral once, 3 h): 6.33 ng/mL and 6.79 ng/mL and 7.66 ng/mL
- CBD concentration in blood plasma (individual dogs 5-8, 0.24 mg/kg CBD + 0.12 mg/kg THC oral once, 4 h): 4.07 ng/mL and 4.40 ng/mL and 4.36 ng/mL
- CBD concentration in blood plasma (individual dogs 5-8, 0.24 mg/kg CBD + 0.12 mg/kg THC oral once, 6 h): 3.40 ng/mL and 2.22 ng/mL and 5.74 ng/mL and 1.87 ng/mL
- CBD concentration in blood plasma (individual dogs 5-8, 0.24 mg/kg CBD + 0.12 mg/kg THC oral once, 8 h): 4.68 ng/mL and 1.23 ng/mL and 4.36 ng/mL and 0.91 ng/mL
- CBD concentration in blood plasma (individual dogs 5-8, 0.24 mg/kg CBD + 0.12 mg/kg THC oral once, 12 h): 0.63 ng/mL and 0.85 ng/mL and 0.72 ng/mL
- CBD concentration in blood plasma (individual dogs 5-8, 0.24 mg/kg CBD + 0.12 mg/kg THC oral once, 16 h): 0.49 ng/mL and 0.65 ng/mL and 0.47 ng/mL
- CBD concentration in blood plasma (individual dogs 5-8, 0.24 mg/kg CBD + 0.12 mg/kg THC oral once, 24 h): 0.28 ng/mL (2×) and 0.46 ng/mL
- CBD concentration in blood plasma (individual dogs 5-8, 0.24 mg/kg CBD + 0.12 mg/kg THC oral once, 32 h): 0.39 ng/mL (2×) and 0.32 ng/mL
- CBD concentration in blood plasma (individual dogs 5-8, 0.24 mg/kg CBD + 0.12 mg/kg THC oral once, 48 h): 0.00 ng/mL (2×) and 0.22 ng/mL and 0.31 ng/mL
- CBD concentration in blood plasma (individual dogs 5-8, 0.24 mg/kg CBD + 0.12 mg/kg THC oral once, 72 h): 0.00 ng/mL
- CBD in the subject's blood (up to 72 h after administration): detectable
